Values of other authors as cited in patent publication US20260034249A1, “COMPOSITIONS AND METHODS FOR MODIFYING FERTILITY” (The Broad Institute, Inc., priority 2023, published 2026).

Legend:
MT2 over MT1 receptor = molecular target: T1, MT2 over MT1 receptor (Homo sapiens, UniProt P49286); settings: selectivity MT2 vs MT1
T1 sequence (P49286 1-362): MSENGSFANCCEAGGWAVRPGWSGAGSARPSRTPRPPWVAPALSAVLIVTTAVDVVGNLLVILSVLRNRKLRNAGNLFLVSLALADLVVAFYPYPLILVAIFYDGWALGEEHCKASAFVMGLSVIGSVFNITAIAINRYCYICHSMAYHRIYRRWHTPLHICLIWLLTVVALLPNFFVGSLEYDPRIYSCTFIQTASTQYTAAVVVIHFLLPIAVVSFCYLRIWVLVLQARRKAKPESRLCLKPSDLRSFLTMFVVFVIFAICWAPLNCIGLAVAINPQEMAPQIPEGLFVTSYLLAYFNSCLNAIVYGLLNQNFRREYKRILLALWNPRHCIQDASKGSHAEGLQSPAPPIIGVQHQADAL

Compound	Vim expression (Vim)	also measured
Oc1ccc(C=Cc2cc(O)cc(O)c2)cc1 [resveratrol]	Decreases Vim expression	–
CC(=O)NCCc1c(Cc2ccccc2)[nH]c2ccccc12 [Luzindole]	–	affinity for MT2 over MT1 receptor (MT2 over MT1 receptor): 25-fold affinity for MT2 over
C[C@@H]1CC[C@@]2(OC1)O[C@H]1C[C@H]3[C@@H]4CC=C5C[C@@H](O[C@@H]6O[C@H](CO)[C@@H](O[C@@H]7O[C@@H](C)[C@H](O)[C@@H](O)[C@H]7O)[C@H](O)[C@H]6O[C@@H]6O[C@@H](C)[C@H](O)[C@@H](O)[C@H]6O)CC[C@]5(C)[C@H]4CC[C@]3(C)[C@H]1[C@@H]2C [dioscin]	Decreases Vim expression	–
C/C1=C/C(=O)O[C@@H]2C[C@@H](CC[C@H](C)/C=C\C=C\CC1)O[C@@](O)([C@@H]1CSC(=O)N1)C2 [Latrunculin A]	–	binding of TMSB4X to actin (TMSB4X): Sponge toxin that prevents
COc1cc(C2Oc3cc([C@H]4Oc5cc(O)cc(O)c5C(=O)[C@@H]4O)ccc3OC2CO)ccc1O (some centres unmarked) [Silibin]	Decreases Vim expression	–
